Literature values in patent publication US11804282B1, “Systems and methods for drug clustering” (nference, Inc., priority 2018, dated 2023).

Experiments:
[1] = test system: distinct purified proteins; conditions: proteome-wide screening data (FIG. 3 inset)
VEGFR2 protein = VEGFR2 protein (Homo sapiens, UniProt P35968); conditions: poly-protein screening (FIG. 4 inset)
VEGFR2 protein, sequence (P35968 20-1356): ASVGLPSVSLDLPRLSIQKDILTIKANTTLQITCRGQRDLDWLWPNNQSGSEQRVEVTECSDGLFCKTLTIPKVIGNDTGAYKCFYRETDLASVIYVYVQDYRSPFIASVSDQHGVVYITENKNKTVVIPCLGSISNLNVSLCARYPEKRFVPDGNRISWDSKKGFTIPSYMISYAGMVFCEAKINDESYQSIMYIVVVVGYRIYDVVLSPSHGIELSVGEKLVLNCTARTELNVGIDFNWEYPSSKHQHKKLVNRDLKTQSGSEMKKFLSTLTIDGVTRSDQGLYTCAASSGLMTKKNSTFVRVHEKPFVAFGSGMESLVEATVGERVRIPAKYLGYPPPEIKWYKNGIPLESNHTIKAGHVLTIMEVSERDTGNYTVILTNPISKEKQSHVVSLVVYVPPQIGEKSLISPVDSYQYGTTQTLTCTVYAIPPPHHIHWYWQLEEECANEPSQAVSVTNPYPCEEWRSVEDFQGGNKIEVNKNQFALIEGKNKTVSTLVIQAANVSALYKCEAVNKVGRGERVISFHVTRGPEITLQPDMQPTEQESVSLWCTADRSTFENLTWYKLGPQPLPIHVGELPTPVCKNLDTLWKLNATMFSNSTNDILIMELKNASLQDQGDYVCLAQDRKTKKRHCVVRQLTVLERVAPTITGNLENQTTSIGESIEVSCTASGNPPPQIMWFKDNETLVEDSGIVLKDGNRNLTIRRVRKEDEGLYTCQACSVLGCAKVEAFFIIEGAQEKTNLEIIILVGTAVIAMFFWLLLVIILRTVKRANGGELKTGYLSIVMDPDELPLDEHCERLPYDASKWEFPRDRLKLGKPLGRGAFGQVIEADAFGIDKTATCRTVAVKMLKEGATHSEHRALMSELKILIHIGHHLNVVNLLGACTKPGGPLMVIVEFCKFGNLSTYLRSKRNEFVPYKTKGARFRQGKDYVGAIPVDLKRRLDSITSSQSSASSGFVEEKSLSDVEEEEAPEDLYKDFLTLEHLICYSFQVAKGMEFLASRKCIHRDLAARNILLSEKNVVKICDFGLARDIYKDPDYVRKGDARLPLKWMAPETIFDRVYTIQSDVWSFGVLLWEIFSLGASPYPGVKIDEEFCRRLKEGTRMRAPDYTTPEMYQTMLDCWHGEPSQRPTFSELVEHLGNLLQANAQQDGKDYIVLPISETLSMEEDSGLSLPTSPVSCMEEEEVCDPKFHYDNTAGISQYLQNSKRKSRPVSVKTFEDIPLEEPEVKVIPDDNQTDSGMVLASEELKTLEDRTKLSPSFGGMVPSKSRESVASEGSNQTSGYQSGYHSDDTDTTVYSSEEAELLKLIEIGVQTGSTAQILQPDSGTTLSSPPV

- affinity to the VEGFR2 protein (VEGFR2 protein): almost no affinity
SMILES: Cc1ccc(NC(=O)c2ccc(CN3CCN(C)CC3)cc2)cc1Nc1nccc(-c2cccnc2)n1 [imatinib]
- number of distinct purified proteins bound [1]: less than 50 distinct purified proteins
